Data on 18 molecules can be found in US10336762B2 (priority 2017, dated 2019).

pEC50, pIC50: −log10 of the molar value.

One assay addresses IRAK4 enzyme (Homo sapiens (Human), UniProt Q9NWZ3). Description: biochemical. The note with it: IRAK4 enzyme, TR-FRET (HTRF), 500 μM ATP. Type of assay: biochemical.
Another assay deals with TNFα. In words: cells. Type of assay: cell-based, human. Particulars: Homo sapiens, Monocyte, LPS-stimulated human monocytes, TNFα content; read-out: EC50 TNF.

Chain of IRAK4 enzyme (Q9NWZ3 whole entry): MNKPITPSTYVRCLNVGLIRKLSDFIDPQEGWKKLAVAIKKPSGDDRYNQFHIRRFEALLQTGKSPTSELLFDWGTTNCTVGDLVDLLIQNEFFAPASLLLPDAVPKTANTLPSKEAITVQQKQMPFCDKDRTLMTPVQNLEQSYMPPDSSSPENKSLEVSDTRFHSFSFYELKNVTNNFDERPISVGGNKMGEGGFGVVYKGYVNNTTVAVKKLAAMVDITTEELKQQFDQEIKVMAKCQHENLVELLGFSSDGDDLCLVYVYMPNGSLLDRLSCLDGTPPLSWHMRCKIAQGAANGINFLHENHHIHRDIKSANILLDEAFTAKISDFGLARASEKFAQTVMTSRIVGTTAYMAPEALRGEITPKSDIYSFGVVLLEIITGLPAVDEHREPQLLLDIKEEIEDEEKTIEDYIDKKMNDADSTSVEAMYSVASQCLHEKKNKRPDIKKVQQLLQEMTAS

Broadly, the pIC50 is the negative decadic logarithm of the IC50, by convention in mol/L. Lower therefore signals a high IC50. For orientation: pEC50 means the EC50 on a negative log10 scale, so that one unit is a factor of ten. In turn, `CC(C)(O)[C@H](F)CNC(=O)c1cnc(-c2ccc3cc(C#N)cnn23)cc1NC12CCC(CC1)CC2` [Example 421, (R)-4-(bicyclo[2.2.2]octan-1-ylamino)-6-(3-cyano-pyrrolo[1,2-b]pyridazin-7-yl)-N-(2-fluoro-3-hydroxy-3-methylbutyl)nicotinamide] had a pIC50 against IRAK4 enzyme of 8.70. Further, the pEC50 in the assay on TNFα was 7.62.
In turn, `CC(C)(O)[C@H](F)CNC(=O)c1cnc(-c2ccc3cc(C#N)cnn23)cc1N[C@H]1CC[C@H](NC(=O)C2(F)CC2)CC1` [Example 422, 6-(3-cyanopyrrolo[1,2-b]pyridazin-7-yl)-N-((R)-2-fluoro-3-hydroxy-3-methylbutyl)-4-(((1r,4R)-4-(1-fluorocyclopropane-1-carboxamido)cyclohexyl)amino)nicotinamide] showed a pIC50 against IRAK4 enzyme of 8.70. In addition, the pEC50 with TNFα is 7.12.
The corresponding values for `CC1(C(=O)N[C@H]2CC[C@H](Nc3cc(-c4ccc5cc(C#N)cnn45)ncc3C(=O)NC[C@@H](F)C(C)(C)O)CC2)CC1` [Example 423, 6-(3-cyanopyrrolo[1,2-b]pyridazin-7-yl)-N-((R)-2-fluoro-3-hydroxy-3-methyl-butyl)-4-(((1r,4R)-4-(1-methylcyclopropane-1-carboxamido)cyclohexyl)amino)nicotinamide] are 8.70 and 7.03.
`C=CC(=O)NC12CCC(Nc3cc(-c4ccc5cc(C#N)cnn45)ncc3C(=O)NC[C@@H](F)C(C)(C)O)(CC1)CC2` [Example 424, (R)-4-((4-acrylamidobicyclo[2.2.2]octan-1-yl)amino)-6-(3-cyanopyrrolo[1,2-b]pyridazin-7-yl)-N-(2-fluoro-3-hydroxy-3-methyl-butyl)nicotinamide] had a negative-log IC50 (pIC50) against IRAK4 enzyme of 9.00. In the assay on TNFα, the pEC50 is 7.74.
The corresponding values for `C=CC(=O)N[C@H]1CC[C@H](Nc2cc(-c3ccc4cc(C#N)cnn34)ncc2C(=O)NC[C@@H](F)C(C)(C)O)CC1` [Example 425, 4-(((1r,4R)-4-acrylamidocyclohexyl)amino)-6-(3-cyano-pyrrolo[1,2-b]pyridazin-7-yl)-N-((R)-2-fluoro-3-hydroxy-3-methylbutyl) nicotinamide] are 8.70 and 6.92.
Consider `N#Cc1cnn2c(-c3cc(N[C@H]4CCC[C@@H](O)C4)c(C(=O)NC4C[C@H]4F)cn3)ccc2c1` (stereo partly drawn) [Example 426, 6-(3-cyanopyrrolo[1,2-b]pyridazin-7-yl)-N-((2R)-2-fluorocyclopropyl)-4-(((1S,3R)-3-hydroxycyclo-hexyl)amino)nicotinamide], for which the negative-log IC50 (pIC50) against IRAK4 enzyme was 8.30. For the same molecule, the negative-log EC50 (pEC50) in the assay with TNFα was 6.23.
Turning to `N#Cc1cnn2c(-c3cc(N[C@H]4CCC[C@@H](O)C4)c(C(=O)NC4CC5(C4)CC(F)(F)C5)cn3)ccc2c1` [Example 427, 6-(3-cyanopyrrolo[1,2-b]pyridazin-7-yl)-N-(6,6-difluorospiro[3.3]heptan-2-yl)-4-(((1S,3R)-3-hydroxycyclohexyl)amino) nicotinamide], the pIC50 against IRAK4 enzyme was 8.70. In addition, the pEC50 with TNFα is 6.56.
`N#Cc1cnn2c(-c3cc(N[C@H]4CCC[C@@H](O)C4)c(C(=O)NCC4(C#N)CC4)cn3)ccc2c1` [Example 428, N-((1-cyanocyclopropyl)methyl)-6-(3-cyano-pyrrolo[1,2-b]pyridazin-7-yl)-4-(((1S,3R)-3-hydroxycyclohexyl)amino)nicotinamide] gave a negative-log IC50 (pIC50) against IRAK4 enzyme of 7.20. Moreover, in the assay with TNFα, the pEC50 was 5.37.
On IRAK4 enzyme, `CC(C)(O)[C@H](F)CNC(=O)c1cnc(-c2ccc3cc(C#N)cnn23)cc1N[C@]1(C)C[C@@H](O)C1` [Example 429, 6-(3-cyanopyrrolo[1,2-b]pyridazin-7-yl)-N-((R)-2-fluoro-3-hydroxy-3-methylbutyl)-4-(((1r,3R)-3-hydroxy-1-methylcyclo-butyl)amino)nicotinamide] had a pIC50 of 9.00. In addition, the pEC50 in the assay with TNFα was 7.44.
Taken in the same sequence, the figures for `N#Cc1cnn2c(-c3cc(N[C@H]4CCC[C@@H](O)C4)c(C(=O)NC4CC4(F)F)cn3)ccc2c1` (stereo partly drawn) [Example 430, 6-(3-cyanopyrrolo[1,2-b]pyridazin-7-yl)-N-(2,2-difluorocyclopropyl)-4-(((1S,3R)-3-hydroxy-cyclohexyl)amino) nicotinamide] were 7.85 and 6.31.
Taken in the same sequence, the figures for `CC(C)(O)[C@H](F)CNC(=O)c1cnc(-c2ccc3cc(C#N)cnn23)cc1N[C@]1(C)CC[C@H](O)CC1` [Example 432, 6-(3-cyanopyrrolo[1,2-b]pyridazin-7-yl)-N-((R)-2-fluoro-3-hydroxy-3-methylbutyl)-4-(((1s,4S)-4-hydroxy-1-methylcyclohexyl)amino) nicotinamide] were over 9.00 and 7.43.
Molecule `CC(C)(O)[C@H](F)CNC(=O)c1cnc(-c2ccc3cc(C#N)cnn23)cc1N[C@]1(C)C[C@H](O)C1` [Example 433, 6-(3-cyanopyrrolo[1,2-b]pyridazin-7-yl)-N-((R)-2-fluoro-3-hydroxy-3-methylbutyl)-4-(((1s,3S)-3-hydroxy-1-methylcyclobutyl)amino) nicotinamide] showed a pIC50 against IRAK4 enzyme of over 9.00. Moreover, the negative logarithm of the EC50 (pEC50) with TNFα was 7.33.
Taken in the same sequence, the figures for `CC(C)(O)[C@H](F)CNC(=O)c1cnc(-c2ccc3cc(C#N)cnn23)cc1Nc1ccc2c(c1)CNC2=O` [Example 434, (R)-6-(3-cyanopyrrolo[1,2-b]pyridazin-7-yl)-N-(2-fluoro-3-hydroxy-3-methylbutyl)-4-((1-oxoisoindolin-5-yl)amino)nicotinamide] were over 9.00 and 6.97.
Taken in the same sequence, the figures for `CC(C)(O)[C@H](F)CNC(=O)c1cnc(-c2ccc3cc(C#N)cnn23)cc1Nc1ccc(O)nc1` [Example 435, (R)-6-(3-cyanopyrrolo[1,2-b]pyridazin-7-yl)-N-(2-fluoro-3-hydroxy-3-methylbutyl)-4-((6-hydroxypyridin-3-yl)amino)nicotinamide] were 5.00 and under 5.00.
Turning to `CC(C)(O)[C@H](F)CNC(=O)c1cnc(-c2ccc3cc(C#N)cnn23)cc1NCCCCS(C)(=O)=O` [Example 438, (R)-6-(3-cyanopyrrolo[1,2-b]pyridazin-7-yl)-N-(2-fluoro-3-hydroxy-3-methylbutyl)-4-((4-(methylsulfonyl)butyl)amino)nicotinamide], at IRAK4 enzyme, the negative logarithm of the IC50 (pIC50) was 9.00. Further, the pEC50 in the assay with TNFα is 6.87.
Taken in the same sequence, the figures for `CCS(=O)(=O)CCCNc1cc(-c2ccc3cc(C#N)cnn23)ncc1C(=O)NC[C@@H](F)C(C)(C)O` [Example 439, (R)-6-(3-cyanopyrrolo[1,2-b]pyridazin-7-yl)-4-((3-(ethylsulfonyl)propyl)amino)-N-(2-fluoro-3-hydroxy-3-methylbutyl) nicotinamide] were over 9.00 and 7.40.
Molecule `CC(CCS(C)(=O)=O)Nc1cc(-c2ccc3cc(C#N)cnn23)ncc1C(=O)NC[C@@H](F)C(C)(C)O` (stereo partly drawn) [Example 440, 6-(3-cyanopyrrolo[1,2-b]pyridazin-7-yl)-N-((R)-2-fluoro-3-hydroxy-3-methylbutyl)-4-((4-(methylsulfonyl)butan-2-yl)amino)nicotinamide] had a pIC50 against IRAK4 enzyme of 8.70. For the same molecule, in the assay on TNFα, the pEC50 was 6.15.
Taken in the same sequence, the figures for `Cn1ccc(Nc2cc(-c3ccc4cc(C#N)cnn34)ncc2C(=O)NC[C@@H](F)C(C)(C)O)cc1=O` [Example 442, (R)-6-(3-cyanopyrrolo[1,2-b]pyridazin-7-yl)-N-(2-fluoro-3-hydroxy-3-methylbutyl)-4-((1-methyl-2-oxo-1,2-dihydropyridin-4-yl)amino)nicotinamide] were 9.00 and 6.98.
